Measurements reported in the NIST ThermoML archive (doi:10.1016/j.tca.2008.02.008).

Experiments:
[1] = 298.15 K; 101.33 kPa; Liquid; Vibrating tube method
[2] = refractive index (Na D-line) (dimensionless); settings: 298.15 K; 101.33 kPa; Liquid; refractometer
[3] = excess molar enthalpy (molar enthalpy of mixing); xn = mol fraction of the nth substance listed; settings: 298.15 K, 101 kPa, Liquid, Flow calorimetry

COCCOC(C)=O [2-methoxyethyl ethanoate]
Settings | mass density [kg/m3] | refractive index
[1] | 999.76 | –
[2] | – | 1.39988

CCCCOCCOC(C)=O [2-butoxyethyl acetate] + CC(Cl)CCl
[3]
Settings | excess molar enthalpy [kcal/mol]
x2 = 0.0659 | -0.0225
x2 = 0.0985 | -0.0299
x2 = 0.1611 | -0.0499
x2 = 0.1911 | -0.0545
x2 = 0.2486 | -0.0684
x2 = 0.3032 | -0.079
x2 = 0.3549 | -0.08791
x2 = 0.4041 | -0.09455
x2 = 0.4509 | -0.09775
x2 = 0.4955 | -0.1004
x2 = 0.5585 | -0.1023
x2 = 0.5982 | -0.1015
x2 = 0.6545 | -0.09778
x2 = 0.7073 | -0.0914
x2 = 0.7568 | -0.0831
x2 = 0.8035 | -0.0727
x2 = 0.8615 | -0.0569
x2 = 0.9022 | -0.0431
x2 = 0.9531 | -0.0226

CCOCCOC(C)=O [2-ethoxyethyl ethanoate] + CC(Cl)CCl
[3]
Settings | excess molar enthalpy [kcal/mol]
x2 = 0.0532 | -0.0175
x2 = 0.1067 | -0.0303
x2 = 0.1585 | -0.0476
x2 = 0.2088 | -0.0594
x2 = 0.2575 | -0.0693
x2 = 0.3049 | -0.0772
x2 = 0.351 | -0.08413
x2 = 0.3957 | -0.08934
x2 = 0.4605 | -0.09474
x2 = 0.5022 | -0.09634
x2 = 0.5428 | -0.09677
x2 = 0.6017 | -0.09524
x2 = 0.6583 | -0.09261
x2 = 0.6949 | -0.08788
x2 = 0.748 | -0.0794
x2 = 0.7991 | -0.0688
x2 = 0.8485 | -0.0565
x2 = 0.896 | -0.0419
x2 = 0.9569 | -0.0198

CCCCOCCOC(C)=O [2-butoxyethyl acetate]
Settings | mass density [kg/m3] | refractive index
[1] | 935.12 | –
[2] | – | 1.41183

CC(Cl)CCl (stereo not given) [1,2-dichloropropane]
Settings | mass density [kg/m3] | refractive index
[1] | 1148.95 | –
[2] | – | 1.43653

COCCOC(C)=O [2-methoxyethyl ethanoate] + CC(Cl)CCl
[3]
Settings | excess molar enthalpy [kcal/mol]
x2 = 0.0464 | -0.0141
x2 = 0.0936 | -0.0253
x2 = 0.1401 | -0.0365
x2 = 0.2084 | -0.0512
x2 = 0.253 | -0.06
x2 = 0.2969 | -0.0674
x2 = 0.3402 | -0.0748
x2 = 0.4038 | -0.08196
x2 = 0.4454 | -0.08535
x2 = 0.5066 | -0.08855
x2 = 0.5467 | -0.08953
x2 = 0.6056 | -0.08855
x2 = 0.6442 | -0.0864
x2 = 0.701 | -0.0811
x2 = 0.7566 | -0.0746
x2 = 0.811 | -0.0636
x2 = 0.8466 | -0.0549
x2 = 0.8991 | -0.0402
x2 = 0.9505 | -0.0217

CCOCCOC(C)=O [2-ethoxyethyl ethanoate]
Settings | mass density [kg/m3] | refractive index
[1] | 967.36 | –
[2] | – | 1.40311
